Laboratory results taken from patent publication US8951969B2, “Compositions and methods for treating centrally mediated nausea and vomiting” (Helsinn Healthcare S.A., priority 2009, dated 2015).

Experiment: Netupitant + dexamethasone drug interaction study
Type: in vivo, human
Method: The effect of netupitant on orally administered dexamethasone pharmacokinetics was evaluated in this study. This was a randomized, open, 3-period crossover study utilizing an incomplete Latin Square design where subjects were given dexamethasone alone, or oral Netupitant 100 mg., 300 mg. or 450 mg. each given with dexamethasone. Netupitant was given orally on Day 1 only. The dexamethasone regimen for each treatment was 20 mg. orally Day 1, followed by 8 mg. orally every 12 hours from Day 2 through Day 4. Nineteen subjects (12 male and 7 female) completed the study (i.e., all 3 treatment periods).

[1] = co-administration of 100 mg netupitant (oral, Day 1) vs dexamethasone alone
[2] = co-administration of 300 mg netupitant (oral, Day 1) vs dexamethasone alone
[3] = co-administration of 450 mg netupitant (oral, Day 1) vs dexamethasone alone

C[C@@H]1C[C@H]2[C@@H]3CCC4=CC(=O)C=C[C@]4(C)[C@@]3(F)[C@@H](O)C[C@]2(C)[C@@]1(O)C(=O)CO [dexamethasone]
Dexamethasone Cmin on Days 2-4, fold increase (co-administration of 100 mg netupitant): approximately 2.8 fold
AUC0-24 (Day 1) of dexamethasone, fold increase [1]: 1.5 fold
AUC24-36 (Day 2) of dexamethasone, fold increase [1]: 2.1 fold
AUC84-108 and AUC84-inf (Day 4) of dexamethasone, fold increase [1]: 1.7 fold
Dexamethasone Cmin on Days 2-4, fold increase (co-administration of 300 mg netupitant): ~4.3 fold
AUC0-24 (Day 1) of dexamethasone, fold increase [2]: 1.7 fold
AUC24-36 (Day 2) of dexamethasone, fold increase [2]: 2.4 fold
AUC84-108 and AUC84-inf (Day 4) of dexamethasone, fold increase [2]: 2.4 fold
Dexamethasone Cmin on Days 2-4, fold increase (co-administration of 450 mg netupitant): ~4.6 fold
AUC0-24 (Day 1) of dexamethasone, fold increase [3]: 1.8 fold
AUC24-36 (Day 2) of dexamethasone, fold increase [3]: 2.6 fold
AUC84-108 and AUC84-inf (Day 4) of dexamethasone, fold increase [3]: 2.7 fold
Dexamethasone Cmax on Day 1, fold increase (co-administration with 100 mg netupitant): 1.1 fold
Dexamethasone Cmax on Day 1, fold increase (co-administration with 300 mg netupitant): 1.1 fold
Dexamethasone Cmax on Day 1, fold increase (co-administration with 450 mg netupitant): 1.2 fold
Dexamethasone Cmax on Day 2 and Day 4, fold increase (subjects administered netupitant (100, 300 or 450 mg)): approximately 1.7 fold
